Results from US8173131B2, “Compositions and methods for modulating RSV infection and immunity” (PerkinElmer Health Sciences, Inc., priority 2000, dated 2012).

Legend:
RSV = RSV plaque reduction by small molecule peptide inhibitors on Vero cells (Example II); type: cell-based, RSV/A2; details: peptide added to heparin 5 μg/ml; in words
Experimental: Vero cells were treated with PBS, RT33, RT34, Δ+1, Δ−1 and EYp1 peptides (100 μm) in the presence (B) or absence of heparin (A) (5 μg/ml). Percentage inhibition was determined by dividing the mean plaque forming units (PFU) of treated Vero cells by the mean PFU of PBS-treated Vero cells.
Different concentrations of the G glycoprotein peptides and/or 5 μg/ml heparin (Sigma) were diluted in Dulbecco's phosphate buffered saline (D-PBS; GIBCO) and added to Vero cell monolayers for 1 h at 37° C. Pre-treated Vero cells were infected with 10^6 PFU of RSV/A2 diluted in serum-free DMEM (GIBCO) for 2 h at 37° C., after which DMEM (GIBCO) containing 10% FBS (Hyclone, Logan, Utah) was added, and the infected cells incubated at 37° C. for 3-4 days. Plaques were enumerated by immunostaining with monoclonal antibodies against the G and F glycoproteins (130-2G and 131-2A, respectively), as described (54,55).

CD3+ BAL cells = experiment: Intracellular cytokine expression by CD3+ T cells following in vivo peptide treatment; parameters: species or system BALB/c mice
Experimental: On day −1, prior to RSV infection, mice were i.p. treated (0.1 ml/mouse) with 100 μM of G glycoprotein peptides RT33 (CWAIC) (SEQ ID NO: 12), RT34 (lacks the CX3C motif) or peptides with changes in the CX3C motif (Δ+1, Δ−1, EYp1). Control mice were treated with PBS containing a similar dilution of DMSO used to solubilize the peptides.
Intracellular cytokine staining was modified for microculture staining as described (55, 57). Briefly, BAL cells were incubated in PBS containing Golgi Stop (Pharmingen) for 3 h at 37° C. to allow for accumulation of intracellular cytokines. The cells were washed in PBS containing 1% bovine serum albumin, blocked with 10% normal mouse sera diluted in PBS containing 1% bovine serum albumin, and stained (4° C., 30 min) with an appropriate dilution of anti-CD3 antibody, fixed and permeabilized in Cytofix/Cytoperm (Pharmingen). The cells were washed in Cytofix/Cytoperm buffer and stained (4° C., 30 min) with appropriate dilutions of anti-IL-2 (JES6-5H4), anti-IL-4 (BVD4-1D11), anti-IL-5 (TRFK5), IL-10 (JES3-16E3), anti-IFNγ (XMG1.2), or anti-TNFα (MP6-XT22) antibodies (Pharmingen) diluted in Cytofix/Cytoperm. Extra- and intracellular staining was analyzed by flow cytometry using a FACScan and Cell Quest software (Becton Dickinson, San Diego, Calif.). Total cytokine expression by CD3+ T cells was determined from the percent cytokine expression of CD3+ T cells and total number of cells recovered. The total number of CD3+ BAL cells expressing a particular cytokine was determined by multiplying the total number of BAL cells by the percent CD3+ cells expressing that particular cytokine.

[1] = day 3 pi, peptide 24 hours prior to RSV infection

Sequence | effect of adding peptide to heparin on plaque reduction (RSV) | Total IC cytokine Expressing CD3^+ BAL cells (×10^3) ± SEM: IFNγ (CD3+ BAL cells; day 3 pi) | Total IC cytokine Expressing CD3^+ BAL cells (×10^3) ± SEM: IL-4 (CD3+ BAL cells; day 3 pi) | Total IC cytokine Expressing CD3^+ BAL cells (×10^3) ± SEM: IL-5 (CD3+ BAL cells; day 3 pi) | Total IC cytokine Expressing CD3^+ BAL cells (×10^3) ± SEM: IL-6 (CD3+ BAL cells; day 3 pi) | Total IC cytokine Expressing CD3^+ BAL cells (×10^3) ± SEM: TNFα (CD3+ BAL cells; day 3 pi) | Total IC cytokine Expressing CD3^+ BAL cells (×10^3) ± SEM: IL-2 (CD3+ BAL cells; [1]) | Total IC cytokine Expressing CD3^+ BAL cells (×10^3) ± SEM: IFNγ (CD3+ BAL cells; day 5 pi) | Total IC cytokine Expressing CD3^+ BAL cells (×10^3) ± SEM: IL-2 (CD3+ BAL cells; day 5 pi) | Total IC cytokine Expressing CD3^+ BAL cells (×10^3) ± SEM: IL-4 (CD3+ BAL cells; day 5 pi) | Total IC cytokine Expressing CD3^+ BAL cells (×10^3) ± SEM: IL-5 (CD3+ BAL cells; day 5 pi) | Total IC cytokine Expressing CD3^+ BAL cells (×10^3) ± SEM: IL-6 (CD3+ BAL cells; day 5 pi) | Total IC cytokine Expressing CD3^+ BAL cells (×10^3) ± SEM: TNFα (CD3+ BAL cells; day 5 pi) | Total IC cytokine Expressing CD3^+ BAL cells (×10^3) ± SEM: IFNγ (CD3+ BAL cells; day 7 pi) | Total IC cytokine Expressing CD3^+ BAL cells (×10^3) ± SEM: IL-2 (CD3+ BAL cells; day 7 pi) | Total IC cytokine Expressing CD3^+ BAL cells (×10^3) ± SEM: IL-4 (CD3+ BAL cells; day 7 pi) | Total IC cytokine Expressing CD3^+ BAL cells (×10^3) ± SEM: IL-5 (CD3+ BAL cells; day 7 pi) | Total IC cytokine Expressing CD3^+ BAL cells (×10^3) ± SEM: IL-6 (CD3+ BAL cells; day 7 pi) | Total IC cytokine Expressing CD3^+ BAL cells (×10^3) ± SEM: TNFα (CD3+ BAL cells; day 7 pi) | Total IC cytokine Expressing CD3^+ BAL cells (×10^3) ± SEM: IFNγ (CD3+ BAL cells; day 14 pi) | also measured
TCWACKRIPNK (TCWAIACKRIPNK) [Δ − 1] | no effect above heparin treatment alone | 47 ± 15 ×10^3 | 47 ± 15 ×10^3 | 49 ± 16 ×10^3 | 51 ± 17 ×10^3 | 55 ± 17 ×10^3 | 46 ± 15 ×10^3 | 10 ± 1.6 ×10^3 | 11 ± 1.7 ×10^3 | 13 ± 1.9 ×10^3 | 15 ± 2.2 ×10^3 | 13 ± 2.0 ×10^3 | 18 ± 2.7 ×10^3 | 4.7 ± 0.7 ×10^3 | 3.5 ± 0.5 ×10^3 | 2.8 ± 0.4 ×10^3 | 4.2 ± 0.6 ×10^3 | 6.3 ± 1.0 ×10^3 | 12 ± 0.7 ×10^3 | 10 ± 1.2 ×10^3 | Total IC cytokine Expressing CD3^+ BAL cells (×10^3) ± SEM: IL-2 (CD3+ BAL cells; day 14 pi): 8.7 ± 1.0 ×10^3; Total IC cytokine Expressing CD3^+ BAL cells (×10^3) ± SEM: IL-4 (CD3+ BAL cells; day 14 pi): 12 ± 1.4 ×10^3; Total IC cytokine Expressing CD3^+ BAL cells (×10^3) ± SEM: IL-5 (CD3+ BAL cells; day 14 pi): 14 ± 1.7 ×10^3; Total IC cytokine Expressing CD3^+ BAL cells (×10^3) ± SEM: IL-6 (CD3+ BAL cells; day 14 pi): 13 ± 1.6 ×10^3; Total IC cytokine Expressing CD3^+ BAL cells (×10^3) ± SEM: TNFα (CD3+ BAL cells; day 14 pi): 11 ± 1.4 ×10^3
TCWAIACKRIPNK [Δ + 1] | no effect above heparin treatment alone | 18 ± 2.2 ×10^3 | 18 ± 2.3 ×10^3 | 23 ± 2.9 ×10^3 | 21 ± 2.8 ×10^3 | 19 ± 2.5 ×10^3 | 15 ± 2.0 ×10^3 | 17 ± 5.3 ×10^3 | 16 ± 5.1 ×10^3 | 20 ± 6.2 ×10^3 | 23 ± 7.2 ×10^3 | 21 ± 6.5 ×10^3 | 21 ± 6.8 ×10^3 | 5.6 ± 1.6 ×10^3 | 7.5 ± 2.2 ×10^3 | 5.8 ± 1.7 ×10^3 | 9.9 ± 2.9 ×10^3 | 11 ± 3.3 ×10^3 | 15 ± 2.9 ×10^3 | 11 ± 3.5 ×10^3 | Total IC cytokine Expressing CD3^+ BAL cells (×10^3) ± SEM: IL-2 (CD3+ BAL cells; day 14 pi): 10 ± 3.2 ×10^3; Total IC cytokine Expressing CD3^+ BAL cells (×10^3) ± SEM: IL-4 (CD3+ BAL cells; day 14 pi): 14 ± 4.2 ×10^3; Total IC cytokine Expressing CD3^+ BAL cells (×10^3) ± SEM: IL-5 (CD3+ BAL cells; day 14 pi): 16 ± 4.9 ×10^3; Total IC cytokine Expressing CD3^+ BAL cells (×10^3) ± SEM: IL-6 (CD3+ BAL cells; day 14 pi): 12 ± 3.7 ×10^3; Total IC cytokine Expressing CD3^+ BAL cells (×10^3) ± SEM: TNFα (CD3+ BAL cells; day 14 pi): 15 ± 4.7 ×10^3
